Experimental data taken from patent US20110294778A1, “HEPATITIS C INHIBITOR COMPOUNDS” (priority 2009, published 2011).

Assays:
[1] = tested on: HCV genotype 1a (strain H77) subgenomic replicon with NS3 resistance mutation R155K in Huh-7 cells; experiment: HCV replicon RNA replication assay (NS3 protease variants), genotype 1a R155K; assay type: cell-based; details: Hepatitis C virus, Huh-7, 72 h, read-out: R155K 1a EC50 (nM)
[2] = tested on: HCV genotype 1b (Con-1) subgenomic replicon with NS3 resistance mutation D168V in Huh-7 cells; experiment: HCV replicon RNA replication assay (NS3 protease variants), genotype 1b D168V; assay type: cell-based; details: Hepatitis C virus, Huh-7, 72 h, read-out: D168V 1b EC50 (nM)

SMILES	EC50 [1] [nM]	EC50 [2] [nM]
COc1ccc2c(O[C@@H]3C[C@H]4C(=O)N[C@]5(C(=O)NS(=O)(=O)C6CC6)C[C@H]5/C=C\CCCCC[C@H](NC(=O)c5cc(C)n(C)n5)C(=O)N4C3)cc(OC(C)C)nc2c1C [Compound 1034, (2R,6S,12Z,13aS,14aR,16aS)-N-(cyclopropylsulfonyl)-6-{[(1,5-dimethyl-1H-pyrazol-3-yl)carbonyl]amino}-2-{[7-methoxy-8-methyl-2-(propan-2-yloxy)quinolin-4-yl]oxy}-5,16-dioxo-1,2,3,6,7,8,9,10,11,13a,14,15,16,16a-tetradecahydrocyclopropa[e]pyrrolo[1,2-a][1,4]diazacyclopentadecine-14a(5H)-carboxamide]	7.7	0.67
COc1ccc2c(O[C@@H]3C[C@H]4C(=O)N[C@]5(C(=O)NS(=O)(=O)C6CC6)C[C@H]5/C=C\CCCCC[C@H](NC(=O)c5ccn(CCF)n5)C(=O)N4C3)cc(OC(C)C)nc2c1C [Compound 1031, (2R,6S,12Z,13aS,14aR,16aS)-N-(cyclopropylsulfonyl)-6-({[1-(2-fluoroethyl)-1H-pyrazol-3-yl]carbonyl}amino)-2-{[7-methoxy-8-methyl-2-(propan-2-yloxy)quinolin-4-yl]oxy}-5,16-dioxo-1,2,3,6,7,8,9,10,11,13a,14,15,16,16a-tetradecahydrocyclopropa[e]pyrrolo[1,2-a][1,4]diazacyclopentadecine-14a(5H)-carboxamide]	4.2	0.39
CCOc1ccc2c(O[C@@H]3C[C@H]4C(=O)N[C@]5(C(=O)NS(=O)(=O)C6(C)CC6)C[C@H]5/C=C\CCCCC[C@H](NC(=O)c5ccn(C)n5)C(=O)N4C3)cc(OC(C)C)nc2c1Cl [Compound 1001, (2R,6S,12Z,13aS,14aR,16aS)-2-{[8-chloro-7-ethoxy-2-(propan-2-yloxy)quinolin-4-yl]oxy}-N-[(1-methylcyclopropyl)sulfonyl]-6-{[(1-methyl-1H-pyrazol-3-yl)carbonyl]amino}-5,16-dioxo-1,2,3,6,7,8,9,10,11,13a,14,15,16,16a-tetradecahydrocyclopropa[e]pyrrolo[1,2-a][1,4]diazacyclopentadecine-14a(5H)-carboxamide]	2.6	0.33
COCCn1ccc(C(=O)N[C@H]2CCCCC/C=C\[C@@H]3C[C@@]3(C(=O)NS(=O)(=O)C3CC3)NC(=O)[C@@H]3C[C@@H](Oc4cc(OC(C)C)nc5c(C)c(OC)ccc45)CN3C2=O)n1 [Compound 1006, (2R,6S,12Z,13aS,14aR,16aS)-N-(cyclopropylsulfonyl)-6-({[1-(2-methoxyethyl)-1H-pyrazol-3-yl]carbonyl}amino)-2-{[7-methoxy-8-methyl-2-(propan-2-yloxy)quinolin-4-yl]oxy}-5,16-dioxo-1,2,3,6,7,8,9,10,11,13a,14,15,16,16a-tetradecahydrocyclopropa[e]pyrrolo[1,2-a][1,4]diazacyclopentadecine-14a(5H)-carboxamide]	7	0.33
CCOc1cc(O[C@@H]2C[C@H]3C(=O)N[C@]4(C(=O)NS(=O)(=O)C5(C)CC5)C[C@H]4/C=C\CCCCC[C@H](NC(=O)c4ccn(C)n4)C(=O)N3C2)c2ccc(OC)c(C)c2n1 [Compound 1030, (2R,6S,12Z,13aS,14aR,16aS)-2-[(2-ethoxy-7-methoxy-8-methylquinolin-4-yl)oxy]-N-[(1-methylcyclopropyl)sulfonyl]-6-{[(1-methyl-1H-pyrazol-3-yl)carbonyl]amino}-5,16-dioxo-1,2,3,6,7,8,9,10,11,13a,14,15,16,16a-tetradecahydrocyclopropa[e]pyrrolo[1,2-a][1,4]diazacyclopentadecine-14a(5H)-carboxamide]	6.3	0.38
COc1ccc2c(O[C@@H]3C[C@H]4C(=O)N[C@]5(C(=O)NS(=O)(=O)C6CC6)C[C@H]5/C=C\CCCCC[C@H](NC(=O)c5ccn(CC(=O)N(C)C)n5)C(=O)N4C3)cc(OC(C)C)nc2c1C [Compound 1002, (2R,6S,12Z,13aS,14aR,16aS)-N-(cyclopropylsulfonyl)-6-[({1-[2-(dimethylamino)-2-oxoethyl]-1H-pyrazol-3-yl}carbonyl)amino]-2-{[7-methoxy-8-methyl-2-(propan-2-yloxy)quinolin-4-yl]oxy}-5,16-dioxo-1,2,3,6,7,8,9,10,11,13a,14,15,16,16a-tetradecahydrocyclopropa[e]pyrrolo[1,2-a][1,4]diazacyclopentadecine-14a(5H)-carboxamide]	2.6	3
